Data: patent publication US20040121307A1, “Early detection of cellular differentiation using optophoresis” (Genoptix, Inc, priority 2002, published 2004)

Legend:
Assay type in all cases: cell-based
U937 cells [1] = experiment: Experiment 2: time and concentration dependence of PMA, escape velocity; design: escape velocity, Ave.: unit not given here
Procedure: This experiment was conducted to test the effect of PMA concentration on the escape velocity of U937 cells. PMA concentrations of 10 ng/ml, 1 ng/ml, 100 pg/ml, 10 pg/ml and 1 pg/ml were tested. The control sample received EtOH and not PMA.
The PMA concentration was tested at three timepoints: 1 hour, 3 hours and 5 hours. At each timepoint, 300 μl of cells were removed from each flask. The cells were then spun for 5 minutes at 5000 rpm. The cells were then resuspended in […] PBS/1% BSA and […] of trypan blue.

U937 cells [2] = experiment: Separation of drug treated and untreated leukemia cells, escape velocity; conditions: PMA 5 ug/mL, 6 hours
Procedure: PMA was dissolved in ethanol at a concentration of 5 mg/mL. 3 mls of U937 cells grown in RPMI 1640 media with supplements were removed from the culture flask and 1 ml was placed into each of three eppendorf tubes. Cells from the first tube were pelleted for 4 minutes at 10,000 rpm and resuspended in 250 uL PBS/1% BSA buffer for escape velocity measurements. PMA was added to the remaining two tubes of U937 cells to a final concentration of 5 ug/mL. These tubes were vortexed and placed in a 37° C. water bath for either one hour or six hours. At the end of the time point, the tube was removed, cells were pelleted and then resuspended as described above and escape velocity measurements taken.

[3] = test system: CD11b expression in HL-60 cells; experiment: FACS CD11b expression profile; conditions: 400 ng/ml PMA
Procedure: (§1) Fast scan analysis was also performed on HL-60 cells that were treated with PMA and DMSO. A time course evaluation of PMA treated HL-60 cells was performed with fast scan data taken at 16 hours, 24 hours, 40 hours, and 72 hours post-treatment with 400 ng/ml PMA. A control sample of HL-60 cells was also tested using EtOH as the vehicle for purposes of comparing the differentiated cells with the undifferentiated HL-60 cells. The PMA-treated and control cells were harvested and trypsinized. The samples were then resuspended in PBS/1% BSA. A set of samples was also obtained and left as pellets at 4° C. for subsequent FACS analysis.
FIG. 145 illustrates a histogram of the travel distance of the control cells as well as the PMA-treated cells at 16 hours, 24 hours, 40 hours, and 72 hours post-treatment. FIG. 146 illustrates the mean travel distances of the control cells as well as the PMA-treated cells at 16 hours, 24 hours, 40 hours, and 72 hours post-treatment. FIG. 147 illustrates the FACS CD11b expression profile in PMA-treated HL-60 cells as well as the control. CD11b is a known marker of cellular differentiation and is expressed on the surface of differentiating cells. […] The data illustrate that Optophoretic analysis can be used as an assay for the detection and quantification of cellular differentiation. […]

U937 cells [4] = experiment: Experiment 1: time course dependence of PMA activation, escape velocity
Procedure: The objective of this experiment is to compare the escape velocities of U937 cells that have been treated with the phorbol ester, phorbol 12 myristate 13-acetate (PMA), to the escape velocity of untreated U937 cells. PMA activates the Protein Kinase C pathway and may cause the cells to go into rapid cell differentiation, which may be indicated by a shift in escape velocity. […] At the end of the activation period, the cells were centrifuged for 4 minutes at 10,000 rpm. The supernatant was then removed and the pellet resuspended in 1 ml PBS/1% BSA buffer. The cells were then centrifuged again and resuspended in buffer. The escape velocity and the cell size of cells from each tube were then calculated.
The time dependent effect of PMA was clearly present as can been seen in the shift of escape velocity to higher speeds over greater time periods.

U937 cells [5] = experiment: Experiment 3: PMA inhibition by bisindolymaleimide, escape velocity; conditions: 10 ng/ml PMA only, four hours
Excerpt: The objective of this experiment was to test the effect of bisindolymaleimide on cells exposed to PMA. Bisindolymaleimide is a Protein Kinase C inhibitor and should block the effect of PMA on U937 cells and their escape velocities. As shown in this and prior experiments, exposure of U937 cells to PMA results in an increase in the escape velocity of the cells. Therefore, it is anticipated that addition of bisindolymaleimide will reduce or eliminate the increase in escape velocity caused by PMA. This has in fact been observed in the data shown below.
Bisindolymaleimide was tested at two concentrations: 200 ng/ml and 50 ng/ml. Samples not treated with bisindolymaleimide received an equivalent amount of the carrier, MeOH, as a control. […] The concentration of PMA tested was 10 ng/ml. Samples not receiving PMA received DMSO.
Once the flasks were prepared, they were incubated at 37° C. 5% CO2 for four hours. At the four hour timepoint, 300 μl of cells were removed from each flask and pelleted at 5000 rpm for 5 minutes. The cells were then resuspended in 6 ml PBS/1% BSA and 60 μl trypan blue.

HL-60 cells = experiment: Cellular differentiation of HL-60, fast scan time course; conditions: 400 ng/ml PMA, fast scan
Procedure: as §1
A time course evaluation of DMSO treated HL-60 cells was performed with fast scan data taken at 16 hours, 24 hours, 40 hours, and 70 hours post-treatment with 1% DMSO. A control sample of HL-60 cells was also tested for purposes of comparing the differentiated cells with the undifferentiated HL-60 cells. The DMSO-treated and control cells were then harvested and resuspended in PBS/1% BSA. A set of samples was also obtained and left as pellets at 4° C. for subsequent FACS analysis.

CCCCCCCCCCCCCC(=O)O[C@@H]1[C@@H](C)[C@@]2(O)[C@@H](C=C(CO)C[C@]3(O)C(=O)C(C)=C[C@@H]23)[C@@H]2C(C)(C)[C@]12OC(C)=O [PMA, phorbol 12 myristate 13-acetate]
escape velocity, Ave. (U937 cells [1]; 10 pg/ml PMA, 1 Hour Activation): 14.4
escape velocity, Ave. (U937 cells [1]; 10 pg/ml PMA, 3 Hour Activation): 14.5
escape velocity, Ave. (U937 cells [1]; 10 pg/ml PMA, 5 Hour Activation): 14.1
escape velocity, Ave. (U937 cells [1]; 100 pg/ml PMA, 1 Hour Activation): 14.4
escape velocity, Ave. (U937 cells [1]; 100 pg/ml PMA, 3 Hour Activation): 15.5
escape velocity, Ave. (U937 cells [1]; 100 pg/ml PMA, 5 Hour Activation): 16.1
escape velocity, Ave. (U937 cells [1]; 1 ng/ml PMA, 1 Hour Activation): 14.3
escape velocity, Ave. (U937 cells [1]; 1 ng/ml PMA, 3 Hour Activation): 15.1
escape velocity, Ave. (U937 cells [1]; 1 ng/ml PMA, 5 Hour Activation): 16.5
escape velocity, Ave. (U937 cells [1]; 10 ng/ml PMA, 1 Hour Activation): 14.8
escape velocity, Ave. (U937 cells [1]; 10 ng/ml PMA, 3 Hour Activation): 15.2
escape velocity, Ave. (U937 cells [1]; 10 ng/ml PMA, 5 Hour Activation): 16.2
Optophoretic difference versus control (U937 cells [1]; two lowest concentrations, 10 pg/ml and 1 pg/ml PMA): showed no Optophoretic difference
escape velocity as compared to the untreated cells (U937 cells [2]): significantly higher escape velocity
time after treatment at which a noticeable change in CD11b expression levels was observed [3]: about 40 hours
distribution of escape velocities (U937 cells [4]; 0.01 μg/ml PMA, 6 and 9 hours post treatment (FIG. 31)): clear trend toward higher escape velocities over time
escape velocity, Average (U937 cells [4]; 1 hour of PMA activation): 15.3 μm/sec
escape velocity, Average (U937 cells [4]; 6 hours of PMA activation): 28.0 μm/sec
average escape velocity (U937 cells [5]): 15.4 μm/sec
time after treatment at which Optophoretic analysis detected cellular differentiation into monocytes/macrophages (HL-60 cells): ≤ 16 h
